Measurements: US6914045B2, “Glycopeptide antibiotics” (Wyeth Holdings Corporation, priority 2001, dated 2005)
Converted amounts (≈) assume the structure as drawn. Numbered stars: 1 amine (or outer) side, 2 acyl side, 3 side chain; on linkers, the order of the positions; unused ones are H or OH. Square brackets hold non-standard residues; d marks the D form. Peptide text beside a SMILES is read from it. ξ: configuration not given here. X6 = N=C1NCC(CC(N[*:1])C(=O)[*:2])N1C1OC(CO)C(O)C(O)C1O; Tyr(3-NO2) = N[CH](Cc1ccc(O)c([N+](=O)[O-])c1)C(=O)O; X7 = N=C1NCC(CC(N[*:1])C(=O)[*:2])N1; ξPhe(βξ-Me) = CC(c1ccccc1)C(N)C(=O)O

Assays:
Assay in all cases: in vitro antibacterial evaluation, MIC by broth dilution
Format in all cases: cell-based
Streptococcus sp. = settings: broth dilution, 18 hours at 35° C.; for MIC Streptococcus pneumoniae (ATCC 6301): strain ATCC 6301; for MIC Streptococcus pneumoniae (GC 1894): strain GC 1894; for MIC Streptococcus pyogenes (GC 4563): strain GC 4563; for MIC Streptococcus agalactiae (GC 4564): strain GC 4564; for MIC Streptococcus pneumoniae (GC 4565): strain GC 4565
Method: (§1) Methods for in vitro Antibacterial Evaluation (Table 1)
(§2) The minimum inhibitory concentration (MIC), the lowest concentration of the antibiotic which inhibits growth of the test organism, is determined by the broth dilution method using Muller-Hinton II […] (Baltimore Biological Laboratories) following the recommendations of the National Committee for Clinical Laboratory Standards [Methods for dilution antimicrobial susceptibility tests for bacteria that grow aerobically, approved standard M7-A2, National Committee for Clinical Laboratory Standards, Villanova, Pa.].
(§3) An inoculum level of 5×10^5 CFU/mL, and a range of antibiotic concentrations (64-0.06 μg/mL) is used. […] The test organisms include a spectrum of Gram-positive bacteria comprised of Staphylococcus sp., Streptococcus sp. and Enterococcus sp. These organisms include recent clinical isolates that are resistant to methicillin, penicillin and/or vancomycin.

Staphylococcus sp. = test system: Staphylococcus sp.
Method: as §1, §2, §3

Enterococcus sp. = settings: broth dilution, 18 hours at 35° C.; for MIC Enterococcus faecalis (ATCC 29212): strain ATCC 29212; for MIC Enterococcus faecalis (GC 2242): strain GC 2242; for MIC Enterococcus faecium (GC 2243): strain GC 2243; for MIC Enterococcus faecalis (GC 2691): strain GC 2691; for MIC Enterococcus faecalis (GC 3059): strain GC 3059; for MIC Enterococcus faecalis (GC 4552): strain GC 4552; for MIC Enterococcus faecalis (GC 4553): strain GC 4553; for MIC Enterococcus faecalis (GC 4554): strain GC 4554; for MIC Enterococcus faecium (GC 4556): strain GC 4556; for MIC Enterococcus faecium (GC 4557): strain GC 4557; for MIC Enterococcus avium (GC 4558): strain GC 4558; for MIC Enterococcus faecalis (GC 6189): strain GC 6189
Method: as §1, §2, §3

Escherichia coli = settings: broth dilution, 18 hours at 35° C.; for MIC Escherichia coli (ATCC 25922): strain ATCC 25922; for MIC Escherichia coli (GC 4559): strain GC 4559; for MIC Escherichia coli (GC 4560): strain GC 4560
In short: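 Broth dilution in Muller-Hinton II medium per NCCLS standard M7-A2, with an inoculum of 5×10^5 CFU/mL and antibiotic tested over 64-0.06 μg/mL. MIC was taken as the lowest concentration inhibiting visible growth.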

Row | Structure (SMILES) | MIC Streptococcus pneumoniae (ATCC 6301) (Streptococcus sp.) [µg/mL] | MIC Streptococcus pneumoniae (GC 1894) (Streptococcus sp.) [µg/mL] | MIC Streptococcus pyogenes (GC 4563) (Streptococcus sp.) [µg/mL] | MIC Streptococcus agalactiae (GC 4564) (Streptococcus sp.) [µg/mL] | MIC Streptococcus pneumoniae (GC 4565) (Streptococcus sp.) [µg/mL] | MIC Enterococcus faecalis (ATCC 29212) (Enterococcus sp.) [µg/mL] | MIC Enterococcus faecalis (GC 2242) (Enterococcus sp.) [µg/mL] | MIC Enterococcus faecium (GC 2243) (Enterococcus sp.) [µg/mL] | MIC Enterococcus faecalis (GC 2691) (Enterococcus sp.) [µg/mL] | MIC Enterococcus faecalis (GC 3059) (Enterococcus sp.) [µg/mL] | MIC Enterococcus faecalis (GC 4552) (Enterococcus sp.) [µg/mL] | MIC Enterococcus faecalis (GC 4553) (Enterococcus sp.) [µg/mL] | MIC Enterococcus faecalis (GC 4554) (Enterococcus sp.) [µg/mL] | MIC Enterococcus faecium (GC 4556) (Enterococcus sp.) [µg/mL] | MIC Enterococcus faecium (GC 4557) (Enterococcus sp.) [µg/mL] | MIC Enterococcus avium (GC 4558) (Enterococcus sp.) [µg/mL] | MIC Enterococcus faecalis (GC 6189) (Enterococcus sp.) [µg/mL] | MIC Escherichia coli (ATCC 25922) (Escherichia coli) [µg/mL] | MIC Escherichia coli (GC 4559) (Escherichia coli) [µg/mL] | MIC Escherichia coli (GC 4560) (Escherichia coli) [µg/mL] | other results
1 | CC(c1ccccc1)C1NC(=O)CNC(=O)C(CO)NC(=O)C(CC2CNC(=N)N2C2OC(CO)C(O)C(O)C2O)NC(=O)C(CC2CNC(=N)N2)NC(=O)C(Cc2ccc(O)c([N+](=O)[O-])c2)NC1=O (stereo not drawn) [Example 10, Cyclo[3-(2-iminoimidazolidin-4-yl)alanyl-3-(3-hexopyranosyl-2-iminoimidazolidin-4-yl)-alanylserylglycyl-β-methylphenylalanyl-3-nitrotyrosyl]] (cyclo(G[ξPhe(βξ-Me)][Tyr(3-NO2)][X7][X6]S); configuration not given here) | >64 | >64 | >64 | >64 | >64 | >64 | >64 | >64 | >64 | >64 | >64 | >64 | >64 | >64 | >64 | >64 | >64 | >64 | >64 | >64 | MIC Staphylococcus aureus (ATCC 29213) (Staphylococcus sp.; broth dilution, 18 hours at 35° C.; strain ATCC 29213): >64 µg/mL; MIC Staphylococcus aureus (GC 1131) (Staphylococcus sp.; broth dilution, 18 hours at 35° C.; strain GC 1131): >64 µg/mL; MIC Staphylococcus aureus (GC 3051) (Staphylococcus sp.; broth dilution, 18 hours at 35° C.; strain GC 3051): >64 µg/mL; MIC Staphylococcus aureus (GC 3053) (Staphylococcus sp.; broth dilution, 18 hours at 35° C.; strain GC 3053): >64 µg/mL; MIC Staphylococcus aureus (GC 4541) (Staphylococcus sp.; broth dilution, 18 hours at 35° C.; strain GC 4541): >64 µg/mL; MIC Staphylococcus aureus (GC 4542) (Staphylococcus sp.; broth dilution, 18 hours at 35° C.; strain GC 4542): >64 µg/mL; MIC Staphylococcus aureus-SMITH (GC 4543) (Staphylococcus sp.; broth dilution, 18 hours at 35° C.; strain GC 4543): >64 µg/mL; MIC Staphylococcus aureus (GC 4544) (Staphylococcus sp.; broth dilution, 18 hours at 35° C.; strain GC 4544): >64 µg/mL; MIC Staphylococcus aureus (GC 4545) (Staphylococcus sp.; broth dilution, 18 hours at 35° C.; strain GC 4545): >64 µg/mL; MIC Staphylococcus haemolyticus (GC 4546) (Staphylococcus sp.; broth dilution, 18 hours at 35° C.; strain GC 4546): >64 µg/mL; MIC Coagulase Negative Staphylococcus (GC 4547) (Staphylococcus sp.; broth dilution, 18 hours at 35° C.; strain GC 4547): >64 µg/mL; MIC Coagulase Negative Staphylococcus (GC 4548) (Staphylococcus sp.; broth dilution, 18 hours at 35° C.; strain GC 4548): >64 µg/mL; MIC Coagulase Negative Staphylococcus (GC 4549) (Staphylococcus sp.; broth dilution, 18 hours at 35° C.; strain GC 4549): >64 µg/mL; MIC Coagulase Negative Staphylococcus (GC 4551) (Staphylococcus sp.; broth dilution, 18 hours at 35° C.; strain GC 4551): >64 µg/mL; MIC Coagulase Negative Staphylococcus (GC 6257) (Staphylococcus sp.; broth dilution, 18 hours at 35° C.; strain GC 6257): >64 µg/mL
2 | CC(c1ccccc1)C1NC(=O)CNC(=O)C(CO)NC(=O)C(C(O)C2CNC(=N)N2C2OC(CO)C(O)C(O)C2O)NC(=O)C(C(O)C2CNC(=N)N2)NC(=O)C(Cc2ccc(O)c(N(C)C)c2)NC1=O (stereo not drawn) [Example 12, Cyclo[glycyl-β-methylphenylalanyl-3-(dimethylamino)tyrosyl-3-(2-iminoimidazolidin-4-yl)-seryl-3-(3-hexopyranosyl-2-iminoimidazolidin-4-yl)serylseryl]] | >128 | 128 (≈ 126 µM) | >128 | 128 (≈ 126 µM) | 128 (≈ 126 µM) | >128 | >128 | >128 | >128 | >128 | >128 | >128 | >128 | >128 | >128 | 128 (≈ 126 µM) | >128 | >128 | >128 | 128 (≈ 126 µM) | MIC Staphylococcus aureus (ATCC 29213) (Staphylococcus sp.; strain ATCC 29213; broth dilution, 18 hours at 35° C.): >128 µg/mL; MIC Staphylococcus aureus (GC 1131) (Staphylococcus sp.; strain GC 1131; broth dilution, 18 hours at 35° C.): >128 µg/mL; MIC Staphylococcus aureus (GC 3051) (Staphylococcus sp.; strain GC 3051; broth dilution, 18 hours at 35° C.): >128 µg/mL; MIC Staphylococcus aureus (GC 3053) (Staphylococcus sp.; strain GC 3053; broth dilution, 18 hours at 35° C.): >128 µg/mL; MIC Staphylococcus aureus (GC 4541) (Staphylococcus sp.; strain GC 4541; broth dilution, 18 hours at 35° C.): >128 µg/mL; MIC Staphylococcus aureus (GC 4542) (Staphylococcus sp.; strain GC 4542; broth dilution, 18 hours at 35° C.): >128 µg/mL; MIC Staphylococcus aureus-SMITH (GC 4543) (Staphylococcus sp.; strain GC 4543; broth dilution, 18 hours at 35° C.): >128 µg/mL; MIC Staphylococcus aureus (GC 4544) (Staphylococcus sp.; strain GC 4544; broth dilution, 18 hours at 35° C.): >128 µg/mL; MIC Staphylococcus aureus (GC 4545) (Staphylococcus sp.; strain GC 4545; broth dilution, 18 hours at 35° C.): >128 µg/mL; MIC Staphylococcus haemolyticus (GC 4546) (Staphylococcus sp.; strain GC 4546; broth dilution, 18 hours at 35° C.): >128 µg/mL; MIC Coagulase Negative Staphylococcus (GC 4547) (Staphylococcus sp.; strain GC 4547; broth dilution, 18 hours at 35° C.): >128 µg/mL; MIC Coagulase Negative Staphylococcus (GC 4548) (Staphylococcus sp.; strain GC 4548; broth dilution, 18 hours at 35° C.): >128 µg/mL; MIC Coagulase Negative Staphylococcus (GC 4549) (Staphylococcus sp.; strain GC 4549; broth dilution, 18 hours at 35° C.): >128 µg/mL; MIC Coagulase Negative Staphylococcus (GC 4551) (Staphylococcus sp.; strain GC 4551; broth dilution, 18 hours at 35° C.): >128 µg/mL; MIC Coagulase Negative Staphylococcus (GC 6257) (Staphylococcus sp.; strain GC 6257; broth dilution, 18 hours at 35° C.): >128 µg/mL
